According to patent publication US9216968B2, “Heterocyclic derivative and pharmaceutical drug” (NIPPON SHINYAKU CO., LTD., priority 2011, dated 2015):
Where a name gives a salt, the structure may show the parent alone.

Tests used:
A549 cells = assay: Inhibition of PGE2 production in A549 cell (IL-1β stimulated); type: cell-based, human; conditions: Homo sapiens, A549, 24 h, IL-1β 5 ng/well, PGE2 in culture medium
Summary of the method: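 A549 cells preincubated 60 min with compound in RPMI/3% FBS (final DMSO 0.10), then stimulated with IL-1β (5 ng/well) for 24 h at 37 °C. PGE2 measured by HTRF and PGF2α by EIA in medium; IC50 from inhibition relative to stimulated minus unstimulated production.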

human mPGES-1 = human mPGES-1 (Homo sapiens (Human), UniProt O14684); assay: mPGES-1 inhibiting activity (microsome fractions, PGE2 by HTRF); type: biochemical; conditions: microsomes from CHO-K1 cells transfected with human mPGES-1; PGH2 1 μM, 4° C., 60 seconds; read-out: mPGES-1 Inhibition IC50
human mPGES-1, sequence (O14684 whole entry): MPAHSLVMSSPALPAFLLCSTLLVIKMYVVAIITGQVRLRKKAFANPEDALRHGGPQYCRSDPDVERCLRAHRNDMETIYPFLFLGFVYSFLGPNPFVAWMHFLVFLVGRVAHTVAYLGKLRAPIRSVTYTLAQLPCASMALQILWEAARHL
Summary of the method: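 PGE2 formation read by HTRF after 60 s at 4 °C with 1 μM PGH2 substrate, following 20 min compound preincubation (1% DMSO) with human mPGES-1 microsomes from transfected CHO-K1 cells. Buffer: potassium phosphate, reduced glutathione, pH 7.4; IC50 from activity relative to enzyme-free blank.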

| Compound | IC50 (A549 cells) [nM] | IC50 (human mPGES-1) [nM] |
| --- | --- | --- |
| COCc1nc2c(C(=O)Nc3cccc(Cl)c3C)cc(NC(=O)c3ccc(F)cc3Cl)cc2[nH]1 [Example 93, 6-{[(2-Chloro-4-fluorophenyl)carbonyl]amino}-N-(3-chloro-2-methylphenyl)-2-methoxymethyl-1H-benzimidazole-4-carboxamide hydrochloride] | 154 | 4.2 |
| Cc1ccc(NC(=O)c2cc(NC(=O)c3ccccc3C(F)(F)F)cc3[nH]c(N(C)C)nc23)cc1Cl [Example 202, N-(3-Chloro-4-methylphenyl)-2-(dimethylamino)-6-({[2-(trifluoromethyl)phenyl]carbonyl}amino)-1H-benzimidazole-4-carboxamide hydrochloride] | 5.9 | 4.9 |
| Cc1c(Cl)cccc1NC(=O)c1cc(NC(=O)c2ccccc2C(F)(F)F)cc2[nH]c(NCC(C)(C)CO)nc12 [Example 158, N-(3-Chloro-2-methylphenyl)-2-[(3-hydroxy-2,2-dimethylpropyl)amino]-6-({[2-(trifluoromethyl)phenyl]carbonyl}amino)-1H-benzimidazole-4-carboxamide hydrochloride] | 82.2 | 8.5 |
| COCCOCc1nc2c(C(=O)Nc3cccc(Cl)c3C)cc(NC(=O)c3ccccc3C(F)(F)F)cc2[nH]1 [Example 74, N-(3-Chloro-2-methylphenyl)-2-[(2-methoxyethoxy)methyl]-6-({[2-(trifluoromethyl)phenyl]carbonyl}amino)-1H-benzimidazole-4-carboxamide hydrochloride] | 10.4 | 71.3 |
| CCn1cnc2c(C(=O)NC3CCCCC3)cc(NC(=O)c3ccccc3C(F)(F)F)cc21 [Example 50, N-Cyclohexyl-1-ethyl-6-({[2-(trifluoromethyl)phenyl]carbonyl}amino)-1H-benzimidazole-4-carboxamide] | 810 | 140 |
| COCc1nc2c(C(=O)Nc3cccc(Cl)c3C)cc(NC(=O)c3cc(CCc4ccccc4)ccc3Cl)cc2[nH]1 [Example 123, N-(3-Chloro-2-methylphenyl)-6-({[2-chloro-5-(2-phenylethyl)phenyl]carbonyl}amino)-2-(methoxymethyl)-1H-benzimidazole-4-carboxamide hydrochloride] | 99.8 | 8.7 |
| COC1CN(c2nc3c(C(=O)Nc4cccc(Cl)c4C)cc(NC(=O)c4ccccc4C(F)(F)F)cc3[nH]2)C1 [Example 166, N-(3-Chloro-2-methylphenyl)-2-(3-methoxyazetidin-1-yl)-6-({[2-(trifluoromethyl)phenyl]carbonyl}amino)-1H-benzimidazole-4-carboxamide hydrochloride] | 29 | 3.2 |
| Cc1c(Cl)cccc1NC(=O)c1cc(NC(=O)c2ccccc2C(F)(F)F)cc2[nH]c(N3CCN(C)CC3)nc12 [Example 143, N-(3-Chloro-2-methylphenyl)-2-(4-methylpiperazin-1-yl)-6-({[2-(trifluoromethyl)phenyl]carbonyl}amino)-1H-benzimidazole-4-carboxamide dihydrochloride] | 87.5 | 5.3 |
| COC(C)(C)CNc1nc2c(C(=O)Nc3cccc(Cl)c3C)cc(NC(=O)c3cc(Cl)ccc3Cl)cc2[nH]1 [Example 192, N-(3-Chloro-2-methylphenyl)-6-{[(2,5-dichlorophenyl)carbonyl]amino}-2-[(2-methoxy-2-methylpropyl)amino]-1H-benzimidazole-4-carboxamide hydrochloride] | 18.1 | 9.9 |
| COCCc1nc2c(C(=O)Nc3ccc(C)c(Cl)c3)cc(NC(=O)c3cc(Cl)ccc3Cl)cc2[nH]1 [Example 213, N-(3-Chloro-4-methylphenyl)-6-{[(2,5-dichlorophenyl)carbonyl]amino}-2-(2-methoxyethyl)-1H-benzimidazole-4-carboxamide hydrochloride] | 142 | 0.9 |
| CC(=O)N1CC(c2nc3c(C(=O)Nc4cccc(Cl)c4C)cc(NC(=O)c4ccccc4C(F)(F)F)cc3[nH]2)C1 [Example 68, 2-(1-Acetylazetidin-3-yl)-N-(3-chloro-2-methylphenyl)-6-({[2-(trifluoromethyl)phenyl]carbonyl}amino)-1H-benzimidazole-4-carboxamide hydrochloride] | > 10000 | 63.4 |
| COCc1nc2c(C(=O)Nc3cccc(Cl)c3C)cc(NC(=O)c3cc(Br)ccc3Cl)cc2[nH]1 [Example 106, 6-{[(5-Bromo-2-chlorophenyl)carbonyl]amino}-N-(3-chloro-2-methylphenyl)-2-(methoxymethyl)-1H-benzimidazole-4-carboxamide hydrochloride] | 63.8 | 4.5 |
| COCCNc1nc2c(C(=O)Nc3cccc(Cl)c3C)cc(NC(=O)c3ccccc3C(F)(F)F)cc2[nH]1 [Example 136, N-(3-Chloro-2-methylphenyl)-2-[(2-methoxyethyl)amino]-6-({[2-(trifluoromethyl)phenyl]carbonyl}amino)-1H-benzimidazole-4-carboxamide hydrochloride] | 61.9 | 2.4 |
| Cc1c(Cl)cccc1NC(=O)c1cc(NC(=O)c2ccccc2C(F)(F)F)cc2[nH]c(N3CCCCC3)nc12 [Example 142, N-(3-Chloro-2-methylphenyl)-2-(piperidin-1-yl)-6-({[2-(trifluoromethyl)phenyl]carbonyl}amino)-1H-benzimidazole-4-carboxamide hydrochloride] | 82.7 | 0.4 |
| CNc1nc2c(C(=O)Nc3cccc(Cl)c3C)cc(NC(=O)c3ccccc3C(F)(F)F)cc2[nH]1 [Example 138, N-(3-Chloro-2-methylphenyl)-2-(methylamino)-6-({[2-(trifluoromethyl)phenyl]carbonyl}amino)-1H-benzimidazole-4-carboxamide hydrochloride] | 87.4 | 2.2 |
| Cc1c(Cl)cccc1NC(=O)c1cc(NC(=O)c2c(F)cccc2Cl)cc2[nH]c(NC[C@@H]3CCCO3)nc12 [Example 198, 6-{[(2-Chloro-6-fluorophenyl)-carbonyl]amino}-N-(3-chloro-2-methylphenyl)-2-{[(2S)-tetrahydrofuran-2-ylmethyl]amino}-1H-benzimidazole-4-carboxamide hydrochloride] | 34.1 | 6 |
| COCc1nc2c(C(=O)Nc3cccc(Cl)c3C)cc(NC(=O)c3ccc(C)cc3Cl)cc2[nH]1 [Example 105, N-(3-Chloro-2-methylphenyl)-6-{[(2-chloro-4-methylphenyl)carbonyl]amino}-2-(methoxymethyl)-1H-benzimidazole-4-carboxamide hydrochloride] | 325 | 8.9 |
| Cc1c(Cl)cccc1NC(=O)c1cc(NC(=O)c2c(Cl)cccc2Br)cc2[nH]c(N(C)C)nc12 [Example 187, 6-{[(2-Bromo-6-chlorophenyl)carbonyl]amino}-N-(3-chloro-2-methylphenyl)-2-(dimethylamino)-1H-benzimidazole-4-carboxamide hydrochloride] | 12.7 | 3.6 |
| Cc1c(Cl)cccc1NC(=O)c1cc(NC(=O)c2c(F)cccc2Cl)cc2[nH]c(N(C)C)nc12 [Example 182, 6-{[(2-Chloro-6-fluorophenyl)carbonyl]amino}-N-(3-chloro-2-methylphenyl)-2-(dimethylamino)-1H-benzimidazole-4-carboxamide hydrochloride] | 38.4 | 1.6 |
| Cc1c(Cl)cccc1NC(=O)c1cc(NC(=O)c2cc(Cl)ccc2Cl)cc2[nH]c(C(C)(C)C)nc12 [Example 87, 2-tert-Butyl-N-(3-chloro-2-methylphenyl)-6-{[(2,5-dichlorophenyl)carbonyl]amino}-1H-benzimidazole-4-carboxamide hydrochloride] | 6.9 | 5.7 |
| Cc1c(Cl)cccc1NC(=O)c1cc(NC(=O)c2cc(Cl)ccc2Cl)cc2[nH]c(NCC(C)(C)O)nc12 [Example 191, N-(3-Chloro-2-methylphenyl)-6-{[(2,5-dichlorophenyl)carbonyl]amino}-2-[(2-hydroxy-2-methylpropyl)amino]-1H-benzimidazole-4-carboxamide hydrochloride] | 49.5 | 3.9 |
| COCC(C)(C)CNc1nc2c(C(=O)Nc3cccc(Cl)c3C)cc(NC(=O)c3c(F)cccc3Cl)cc2[nH]1 [Example 196, 6-{[(2-Chloro-6-fluorophenyl)carbonyl]amino}-N-(3-chloro-2-methylphenyl)-2-[(3-methoxy-2,2-dimethylpropyl)amino]-1H-benzimidazole-4-carboxamide hydrochloride] | 35.9 | 6.5 |
| COCc1nc2c(C(=O)NCc3ccccc3Cl)cc(NC(=O)c3ccccc3C(F)(F)F)cc2[nH]1 [Example 24, N-(2-Chlorobenzyl)-2-(methoxymethyl)-6-({[2-(trifluoromethyl)phenyl]carbonyl}amino)-1H-benzimidazole-4-carboxamide hydrochloride] | 751 | 10.5 |
| COCc1nc2c(C(=O)Nc3cccc(Cl)c3C)cc(NC(=O)c3c(F)ccc(F)c3Cl)cc2[nH]1 [Example 101, 6-{[(2-Chloro-3,6-difluorophenyl)carbonyl]amino}-N-(3-chloro-2-methylphenyl)-2-(methoxymethyl)-1H-benzimidazole-4-carboxamide hydrochloride] | 118 | 77.8 |
| CCCC(C)(C)c1nc2c(C(=O)Nc3cccc(Cl)c3C)cc(NC(=O)c3ccccc3C(F)(F)F)cc2[nH]1 [Example 84, N-(3-Chloro-2-methylphenyl)-2-(2-methylpentan-2-yl)-6-({[2-(trifluoromethyl)phenyl]carbonyl}amino)-1H-benzimidazole-4-carboxamide hydrochloride] | 6.5 | 0.8 |
